Target: telomerase enzyme (Homo sapiens, UniProt O14746)
Assay: Flash Plate-based telomerase assay
Type: biochemical
Settings: two hours of incubation at 37°; only indicative, obtained during screening by fitting a limited number of experimental points
Source text: The telomerase activity of the compounds of the invention has been evaluated using a Flash Plate-based assay. […] Other methods for determining the inhibitory concentration of a compound of the invention against telomerase can be employed as will be apparent to a person skilled in the art based on the disclosure herein.
Briefly, the assay mixture is costituted by:
telomerase enzyme diluted in a buffer, the composition of which has been selected to maintain the enzyme activity stable along the duration of the assay.
dNTPs, deoxynucleotides 5′-triphosphate.
biotynilated oligo as primer.
increasing concentrations of test compounds/positive control.
After two hours of incubation at 37° degrees the telomeric repeats added are evaluated by hybridization in solution with a 3′-labeled short oligonucleotide probe. The extent of hybridization is then quantitated by transferring the reaction mixture in a streptavidin-coated flash plate, where the binding between biotin and streptavidin occurs. The telomerase activity is proportional to the radioactivity measured and the inhibitory activity of the compounds is evaluated as IC50 using the Sigma Plot fit program. With the above-described method, IC50 values of the compounds of the present invention were determined. The data reported in Table 1 are only indicative since obtained during the screening by fitting a limited number of experimental points.

Chain of telomerase enzyme (O14746 whole entry): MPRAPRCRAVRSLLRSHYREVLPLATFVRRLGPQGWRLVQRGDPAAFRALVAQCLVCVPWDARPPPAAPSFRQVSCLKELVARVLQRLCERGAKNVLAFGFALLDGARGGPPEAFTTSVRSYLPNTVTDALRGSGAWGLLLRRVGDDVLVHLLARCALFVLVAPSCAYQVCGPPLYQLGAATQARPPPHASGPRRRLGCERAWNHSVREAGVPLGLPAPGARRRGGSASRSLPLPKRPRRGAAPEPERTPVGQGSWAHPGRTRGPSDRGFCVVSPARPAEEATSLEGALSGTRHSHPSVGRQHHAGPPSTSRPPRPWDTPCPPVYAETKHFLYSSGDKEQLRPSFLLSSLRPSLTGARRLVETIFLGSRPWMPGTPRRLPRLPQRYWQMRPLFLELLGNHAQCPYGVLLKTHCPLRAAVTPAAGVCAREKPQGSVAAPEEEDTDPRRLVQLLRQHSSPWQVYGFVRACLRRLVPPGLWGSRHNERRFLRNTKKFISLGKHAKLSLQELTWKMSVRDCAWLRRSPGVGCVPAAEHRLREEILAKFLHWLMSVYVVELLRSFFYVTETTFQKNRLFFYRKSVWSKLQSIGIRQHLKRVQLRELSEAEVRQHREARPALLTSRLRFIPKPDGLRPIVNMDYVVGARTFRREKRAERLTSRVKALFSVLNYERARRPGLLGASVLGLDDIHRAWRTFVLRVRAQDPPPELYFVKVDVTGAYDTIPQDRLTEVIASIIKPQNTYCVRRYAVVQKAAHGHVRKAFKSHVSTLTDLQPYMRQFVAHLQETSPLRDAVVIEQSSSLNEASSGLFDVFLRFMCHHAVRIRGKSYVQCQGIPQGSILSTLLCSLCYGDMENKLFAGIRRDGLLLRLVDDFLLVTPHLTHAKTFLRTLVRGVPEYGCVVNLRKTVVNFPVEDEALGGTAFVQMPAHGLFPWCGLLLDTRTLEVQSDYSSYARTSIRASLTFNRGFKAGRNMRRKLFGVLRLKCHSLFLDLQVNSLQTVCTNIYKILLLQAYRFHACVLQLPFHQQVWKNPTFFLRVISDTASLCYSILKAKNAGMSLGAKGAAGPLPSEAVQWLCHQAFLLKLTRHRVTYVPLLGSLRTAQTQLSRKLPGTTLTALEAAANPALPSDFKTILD

Row | Compound | IC50
1 | Nc1nc(=O)c2c(ncn2Cc2ccc3ccccc3c2)n1Cc1ccc2ccccc2c1 [Compound 1, 2-amino-3,7-bis(2-naphthylmethyl)-3,7-dihydro-6H-purin-6-one] | 4 µM
2 | Nc1nc(=O)c2c(ncn2Cc2ccc(-c3ccccc3)cc2)n1Cc1ccc(-c2ccccc2)cc1 [Compound 2, 2-amino-3,7-bis-[(1,1′-biphenyl)-4-ylmethyl]-3,7-dihydro-6H-purin-6-one] | 3 µM
3 | Nc1nc(=O)c2c(ncn2Cc2ccc(-c3ccc(CCl)cc3)cc2)n1Cc1ccc(-c2ccc(CCl)cc2)cc1 [Compound 3, 2-amino-3,7-bis{[4′-(chloromethyl)[1,1′-biphenyl]-4-yl]methyl}-3,7-dihydro-6H-purin-6-one] | 5 µM
4 | Nc1nc(=O)c2c(ncn2Cc2ccc(Cl)c(Cl)c2)n1Cc1ccc(Cl)c(Cl)c1 [Compound 4, 2-amino-3,7-bis(3,4-dichlorobenzyl)-3,7-dihydro-6H-purin-6-one] | 4 µM
5 | Nc1nc(=O)c2c(ncn2Cc2ccc3ccccc3c2)n1Cc1ccc(-c2ccccc2)cc1 [Compound 5, 2-amino-3-([1,1-biphenyl]-4-ylmethyl)-7-(2-naphthylmethyl)-3,7-dihydro-6H-purin-6-one] | 2 µM
6 | Nc1nc(=O)c2c(ncn2Cc2ccc(-c3ccccc3)cc2)n1Cc1ccc2ccccc2c1 [Compound 6, 2-amino-3-(2-naphthylmethyl)-7-([1,1′-biphenyl]-4-ylmethyl)-3,7-dihydro-6H-purin-6-one] | 2 µM
7 | Nc1nc(=O)c2c(ncn2Cc2ccc3ccccc3c2)n1Cc1ccc(Cl)c(Cl)c1 [Compound 7, 2-amino-3 (3,4-dichlorobenzyl)-7-(2-naphthylmethyl)-3,7-dihydro-6H-purin-6-one] | 3 µM
8 | Nc1nc(=O)c2c(ncn2Cc2ccc3ccccc3c2)n1Cc1cccc(Oc2ccccc2)c1 [Compound 8, 2-amino-3-(3-phenoxybenzyl)-7-(2-naphthylmethyl)-3,7-dihydro-6H-purin-6-one] | 3 µM
9 | Nc1nc(=O)c2c(ncn2Cc2ccc3ccccc3c2)n1Cc1ccc2c(c1)C(=O)c1ccccc1C2=O [Compound 19, 2-{[2-amino-7-(2-naphthylmethyl)-6-oxo-6,7-dihydro-3H-purin-3-yl]methyl}anthra-9,10-quinone] | 4 µM
10 | Nc1nc(=O)c2c(ncn2Cc2ccc3ccccc3c2)n1Cc1ccc(-c2nnn[nH]2)cc1 [Compound 27, 2-amino-7-(2-naphthylmethyl)-3-[4-(1H-tetraazol-5-yl)benzyl]-3,7-dihydro-6H-purin-6-one] | 19 µM
11 | COC(=O)c1cccc(Cn2c(N)nc(=O)c3c2ncn3Cc2ccc3ccccc3c2)c1 [Compound 29, Methyl 3-{[2-amino-7-(2-naphthylmethyl)-6-oxo-6,7-dihydro-3H-purin-3-yl]methyl}benzoate] | 21 µM

— patent US20030186978A1, “Novel telomerase inhibitors” (priority 2000, published 2003)
